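Test compounds were applied to cells in 96-well plates for 48 hours at 5 doses. GI50 is the concentration that inhibits growth by half.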 Calls of active or inactive are those of the source. No stated cut-off is given here; in the data, active = GI50 up to about 1.1 µM and inactive = higher.

Consider seven compounds from ChEMBL document CHEMBL1201862, “PubChem BioAssay data set” (2004).

Holding throughout (assay): DTP human tumour cell line panel, 48 h
The subject of test [1] is UO-31.
The subject of test [2] is MDA-MB-435.
Test [3] deals with OVCAR-5.
For test [4], the system named is OVCAR-3.
In test [5] the test system is SK-MEL-28.
Test [6] relates to EKVX.
Test [7] deals with A498.
In test [8] the test system is DU-145.
Test [9] deals with 786-0.
The subject of test [10] is M14.
For test [11], the system named is SK-MEL-5.
Test [12] deals with HL-60.
Test [13] relates to K562.
Test [14] relates to CAKI-1.
Test [15] concerns SW-620.
Test [16] concerns SNB-19.
The subject of test [17] is HOP-92.
Test [18] has as its system A549.
In test [19] the test system is NCI-H226.
Test [20] relates to HT-29.

Turning to `O=[N+]([O-])c1cccc2nc3ccccc3c(NCCNCCO)c12`, the concentration for 50% growth inhibition (GI50) (in general, the concentration at which growth is held to half of that of the control) in test [1] was 0.07 µM (active); in [2], 0.011 µM (active); in test [3] it was 0.0109 µM (active); in test [4], 0.00558 µM (active); in test [5], 0.047 µM (active); in test [6], 0.00853 µM (active). In addition, the GI50 in test [7] is 0.0121 µM (active); in test [8], 0.00288 µM (active); in test [9], 0.00348 µM (active); in [10] it was 0.011 µM (active); in [11], 0.00153 µM (active); in test [12], 0.0177 µM (active). The 50% growth inhibitory concentration (GI50) was 0.00427 µM (active) in [13]; 0.0178 µM (active) in test [14]; 0.00899 µM (active) in [15]; 0.0349 µM (active) in [16]; 0.00365 µM (active) in [17]; 0.00337 µM (active) in test [18]. Besides, the GI50 is 0.0166 µM (active) in test [19] and 0.00361 µM (active) in [20].

`CC1(O)OC(=O)C2=C1CCC1C2CCC2(C)C(O)CCC12` (stereo not given): the GI50 in test [1], in test [2], in test [3], in [4], in test [5] and in test [6] was > 100 µM (inactive) throughout. Moreover, the GI50 in [7], in test [8], in test [9], in test [10], in test [11] and in test [12] was > 100 µM (inactive) in each case. The GI50 in test [13], in test [14], in test [15], in test [16], in [17] and in test [18] was > 100 µM (inactive) throughout. Further, the GI50 in test [19] and in test [20] was > 100 µM (inactive) in each case.

Consider `COC(=O)N/N=C(/CC1(O)C(=O)Nc2ccc([N+](=O)[O-])cc21)c1ccccc1` (stereo not given), for which the GI50 is 40.9 µM (inactive) in test [1]; 20.8 µM (inactive) in test [2]; > 79.6 µM (inactive) in [3]; 44.3 µM (inactive) in [4]; 23.2 µM (inactive) in [5]; > 54.1 µM (inactive) in test [6]. For the same compound, the GI50 in test [7] was 14 µM (inactive); in [8], > 100 µM (inactive); in [9], 25.4 µM (inactive); in test [10], 34 µM (inactive); in test [11], 23.9 µM (inactive); in test [12], 35 µM (inactive). Further, the GI50 in test [13] was 40.7 µM (inactive); in [14], 75.7 µM (inactive); in test [15], 37.8 µM (inactive); in test [16] it was 38.9 µM (inactive); in test [17] it was 33 µM (inactive); in [18], 63.1 µM (inactive). Also, the GI50 in test [19] is 40.9 µM (inactive); in [20], 31.4 µM (inactive).

As for `COc1ccc(C2C(=O)c3ccc(OC)cc3OC2c2cccnc2)cc1` (stereo not given), the GI50 in test [1], in test [2], in [3], in test [4], in test [5] and in test [6] was > 100 µM (inactive) each time. The GI50 is > 100 µM (inactive) in test [7]; > 100 µM (inactive) in [8]; 83.2 µM (inactive) in [9]; > 100 µM (inactive) in test [10]; > 100 µM (inactive) in [11]; > 100 µM (inactive) in [12]. Also, the GI50 in test [13] was > 100 µM (inactive); in test [14], > 100 µM (inactive); in test [15], > 100 µM (inactive); in test [16], 92.7 µM (inactive); in [17], 22.5 µM (inactive); in [18], > 100 µM (inactive). Also, the GI50 is 44.2 µM (inactive) in test [19] and > 100 µM (inactive) in test [20].

In the case of `COC(=O)C(C(=O)OC)C1CC(=O)c2c(Br)sc(Br)c21` (stereo not given), the GI50 in [1] was 14.5 µM (inactive); in test [2], 17.5 µM (inactive); in test [3] it was 15.1 µM (inactive); in test [4], 2.06 µM (inactive); in test [5], 16.6 µM (inactive); in [6], 15.2 µM (inactive). In addition, the GI50 in [7] was 31.5 µM (inactive); in test [8], 16.4 µM (inactive); in test [9] it was 26.1 µM (inactive); in test [10], 18.3 µM (inactive); in test [11], 15.1 µM (inactive); in test [12], 21.2 µM (inactive). Besides, the GI50 was 21 µM (inactive) in [13]; 9.06 µM (inactive) in [14]; 11.5 µM (inactive) in test [15]; 20.5 µM (inactive) in test [16]; 15.4 µM (inactive) in test [17]; 25 µM (inactive) in test [18]. Moreover, the GI50 in test [19] was 22 µM (inactive); in test [20], 15.4 µM (inactive).

For the compound `COC(=O)c1cc2c(cc1CC(Cc1ccc3c(c1)CCC3)C(=O)OC)CCC2` (stereo not given), the GI50 in [1] is 63.7 µM (inactive); in test [2] it was 31 µM (inactive); in test [3] it was 60.7 µM (inactive); in test [4], > 100 µM (inactive); in [5], 84.1 µM (inactive); in test [6], 27 µM (inactive). For the same compound, the GI50 was > 100 µM (inactive) in test [7]; 83.8 µM (inactive) in test [8]; 51.4 µM (inactive) in test [9]; 72.8 µM (inactive) in [10]; 17.6 µM (inactive) in test [11]; 8.61 µM (inactive) in test [12]. Further, the GI50 in test [13] is 34.2 µM (inactive); in test [14] it was > 100 µM (inactive); in [15], 74 µM (inactive); in [16] it was > 100 µM (inactive); in [17], 21 µM (inactive); in [18], 34 µM (inactive). The GI50 in [19] was 7.24 µM (inactive); in test [20], 26.1 µM (inactive).

As to `O=C(O)c1cnc2c(ccc3ncc(C(=O)O)c(O)c32)c1O`, the GI50 in [1], in test [2], in test [3], in test [4], in [5] and in [6] was > 100 µM (inactive) each time. For the same compound, the GI50 in test [7], in test [8], in test [9], in test [10], in test [11] and in test [12] was > 100 µM (inactive) throughout. Moreover, the GI50 in test [13], in test [14], in test [15], in [16], in [17] and in test [18] was > 100 µM (inactive) in each case. Further, the GI50 in [19] and in [20] was > 100 µM (inactive) each time.
